Test results: PMC12785453, “Oral Fluid Concentrations and Pharmacological Effects of Clephedrone and Methylone in Humans” (International Journal of Molecular Sciences, 2025)
Like-named read-outs stand apart in the source and are kept apart here.

What was measured:
healthy volunteers = assay: Subjective effects, visual analog scales (VAS), clephedrone study; type: in vivo, humans
Text: The study evaluating the acute effects of clephedrone was designed as a non-controlled, prospective, observational, and naturalistic study. The procedures and evaluations included in this study have been described in previous studies evaluating other synthetic cathinones (mephedrone, methylone, alpha-PVP, NEP, HEXEN), phenethylamines (2C-B and 2C-E), or synthetic cannabinoids (JWH-122, JWH-210, UR-144).
This study consisted of one experimental session in which participants (N = 8; 6 women, 2 men) selected their oral dose of clephedrone based on their drug use experience and preferences. According to their dose selection, 3 women and 1 man ingested 100 mg of clephedrone, while the remaining 3 women and 1 man opted for a higher dose of 150 mg. […] Participants were recruited by word of mouth by the harm reduction organization Energy Control in Barcelona (Associació Benestar i Desenvolupament, ABD).
Subjective effects were evaluated with visual analog scales (VAS), the short form of the Addiction Research Center Inventory (ARCI), and the Evaluation of Subjective Effects of Substances with Abuse Potential questionnaire (VESSPA-SSE). In addition, the Sensitivity to Drug Reinforcement Questionnaire (SDRQ) and a pharmacological identification class questionnaire were used in the controlled study administering methylone.
VAS encompassed several adjectives that participants had to rate from “not at all” (0 mm) to “extremely” (100 mm) according to their sensations. This scale included 28 items: intensity, stimulated, high, good effects, bad effects, liking, changes in distances, changes in colors, changes in shapes, changes in lights, hallucinations (seeing lights or spots), hallucinations (seeing things, animals, insects, or people), changes in hearing, hallucinations (hearing sounds or voices), drowsiness, concentration, dizziness, confusion, different or changed body feeling, unreal body feeling, different surroundings, unreal surroundings, open, trust, feeling close to others, I want to be with other people, I want to hug someone, sexual desire, and sexual arousal.
Participants included in the naturalistic clephedrone study completed VAS at baseline, 0.50, 1, 1.5, 2, 3, 4, and 5 h, and ARCI and VESSPA at baseline, 1, 2, 3, 4, and 5 h after self-administering clephedrone. In the controlled study, VAS was performed at baseline and 0.25, 0.50, 0.75, 1, 1.5, 2, 3, 4, 6, 8, 10, and 24 h, and ARCI and VESSPA at baseline and 1, 2, 3, 4, 6, 8, and 10 h after administering methylone. Participants completed SDRQ and VAS sexual desire and arousal at baseline, 1 and 10 h, and the pharmacological class identification questionnaire at 8 h.
For statistical analysis, values of physiological (SBP, DBP, HR, and T) and subjective effects (VAS, ARCI, and VESSPA-SSE) were baseline–adjusted. Maximum effects (Emax) and the time needed to reach maximum effects (Tmax) were determined, and the area under the curve up to 5 h (AUC0–5h) for clephedrone and up to 6 h (AUC0–6h) for methylone was calculated using the trapezoidal rule. Emax and AUC values are presented as mean ± standard deviation, whereas Tmax is presented in median (range).
To find possible significant changes through the time course compared to baseline, a Dunnett multiple comparison test was carried out to compare each time point with baseline in both drug conditions. For clephedrone the comparisons were 0–0.5 h, 0–1 h, 0–1.5 h, 0–2 h, 0–3 h, 0–4 h and 0–5 h, and for methylone this analysis included 0–0.25 h, 0–0.5 h, 0–0.75 h, 0–1 h, 0–1.5 h, 0–2 h, 0–3 h, 0–4 h and 0–6 h. Given their different study designs, no comparative analysis between the time courses of both synthetic cathinones was conducted.

[1] = test system: MDMA-like discriminative stimulus effects; set-up: method as in PMID 30986635; conditions: cited from earlier work
humans = conditions: cited from earlier work
[2] = 100 or 150 mg oral, n=8, listed as clephedrone
[3] = AUC0–5h, 100 or 150 mg oral, n=8

SMILES: CNC(C)C(=O)c1ccc(Cl)cc1 (stereo not drawn) [Clephedrone, 4-chloromethcathinone]
- Hallucinogenic effects (healthy volunteers; 100 or 150 mg oral): did not evidence any hallucinogenic effects
- Tmax of the high-scoring VAS subjective effects (healthy volunteers; 100 or 150 mg oral): 3 h
- VAS Bad effects Emax (healthy volunteers; 100 or 150 mg oral, n=8): 0.38 ± 0.74 mm
- VAS Changes in colors Emax (healthy volunteers; 100 or 150 mg oral, n=8): 1.13 ± 2.80 mm
- VAS Changes in colors Tmax (healthy volunteers; 100 or 150 mg oral, n=8): 0.0 (0.0–3.0) h
- VAS Changes in distances Emax (healthy volunteers; 100 or 150 mg oral, n=8): 1.88 ± 4.55 mm
- VAS Changes in distances Tmax (healthy volunteers; 100 or 150 mg oral, n=8): 0.0 (0.0–2.0) h
- VAS Changes in hearing Emax (healthy volunteers; 100 or 150 mg oral, n=8): 8.75 ± 16.24 mm
- VAS Changes in hearing Tmax (healthy volunteers; 100 or 150 mg oral, n=8): 0.0 (0.0–4.0) h
- VAS Changes in lights Emax (healthy volunteers; 100 or 150 mg oral, n=8): 4.75 ± 9.79 mm
- VAS Changes in lights Tmax (healthy volunteers; 100 or 150 mg oral, n=8): 0.0 (0.0–4.0) h
- VAS Concentration Emax (healthy volunteers; 100 or 150 mg oral, n=8): 22.13 ± 16.65 mm
- VAS Confusion Emax (healthy volunteers; 100 or 150 mg oral, n=8): 3.00 ± 3.82 mm
- VAS Different or changed body feeling Emax (healthy volunteers; 100 or 150 mg oral, n=8): 39.63 ± 22.15 mm
- VAS Different surroundings Emax (healthy volunteers; 100 or 150 mg oral, n=8): 13.75 ± 23.50 mm
- VAS Dizziness Emax (healthy volunteers; 100 or 150 mg oral, n=8): 1.13 ± 1.81 mm
- VAS Drowsiness Emax (healthy volunteers; 100 or 150 mg oral, n=8): 14.25 ± 22.86 mm
- VAS Feeling close to others Emax (healthy volunteers; 100 or 150 mg oral, n=8): 53.38 ± 13.79 mm
- VAS Good effects Emax (healthy volunteers; 100 or 150 mg oral, n=8): 58.50 ± 20.46 mm
- VAS High Emax (healthy volunteers; 100 or 150 mg oral, n=8): 54.25 ± 20.19 mm
- VAS I want to be with other people Emax (healthy volunteers; 100 or 150 mg oral, n=8): 34.63 ± 28.16 mm
- VAS I want to hug someone Emax (healthy volunteers; 100 or 150 mg oral, n=8): 37.63 ± 28.01 mm
- VAS Intensity Emax (healthy volunteers; 100 or 150 mg oral, n=8): 49.13 ± 17.18 mm
- VAS Liking Emax (healthy volunteers; 100 or 150 mg oral, n=8): 59.00 ± 18.56 mm
- VAS Open Emax (healthy volunteers; 100 or 150 mg oral, n=8): 49.25 ± 18.78 mm
- VAS Sexual arousal Emax (healthy volunteers; 100 or 150 mg oral, n=8): 20.13 ± 18.70 mm
- VAS Sexual desire Emax (healthy volunteers; 100 or 150 mg oral, n=8): 20.63 ± 19.60 mm
- VAS Stimulated Emax (healthy volunteers; 100 or 150 mg oral, n=8): 48.75 ± 14.47 mm
- VAS Trust Emax (healthy volunteers; 100 or 150 mg oral, n=8): 53.75 ± 20.62 mm
- VAS Unreal body feeling Emax (healthy volunteers; 100 or 150 mg oral, n=8): 2.13 ± 4.16 mm
- VAS Unreal surroundings Emax (healthy volunteers; 100 or 150 mg oral, n=8): 1.50 ± 4.24 mm
- VAS Concentration Emax (healthy volunteers; [2]): exceeding 20 mm
- VAS Different or changed body feeling Emax (healthy volunteers; [2]): > 30 mm
- VAS Feeling close to others Emax (healthy volunteers; [2]): exceeding 40 mm
- VAS Good effects Emax (healthy volunteers; [2]): exceeding 40 mm
- VAS High Emax (healthy volunteers; [2]): exceeding 40 mm
- VAS I want to be with other people Emax (healthy volunteers; [2]): > 30 mm
- VAS I want to hug someone Emax (healthy volunteers; [2]): > 30 mm
- VAS Intensity Emax (healthy volunteers; [2]): exceeding 40 mm
- VAS Liking Emax (healthy volunteers; [2]): exceeding 40 mm
- VAS Open Emax (healthy volunteers; [2]): exceeding 40 mm
- VAS Sexual arousal Emax (healthy volunteers; [2]): exceeding 20 mm
- VAS Sexual desire Emax (healthy volunteers; [2]): exceeding 20 mm
- VAS Stimulated Emax (healthy volunteers; [2]): exceeding 40 mm
- VAS Trust Emax (healthy volunteers; [2]): exceeding 40 mm
- VAS Bad effects AUC0-5/6 h (healthy volunteers; [3]): 0.38 ± 0.74 mm·h
- VAS Changes in colors AUC0-5/6 h (healthy volunteers; [3]): 1.75 ± 4.75 mm·h
- VAS Changes in distances AUC0-5/6 h (healthy volunteers; [3]): 1.53 ± 3.76 mm·h
- VAS Changes in hearing AUC0-5/6 h (healthy volunteers; [3]): 12.44 ± 23.03 mm·h
- VAS Changes in lights AUC0-5/6 h (healthy volunteers; [3]): 6.41 ± 14.74 mm·h
- VAS Concentration AUC0-5/6 h (healthy volunteers; [3]): 45.34 ± 33.03 mm·h
- VAS Confusion AUC0-5/6 h (healthy volunteers; [3]): 3.72 ± 5.72 mm·h
- VAS Different or changed body feeling AUC0-5/6 h (healthy volunteers; [3]): 87.38 ± 52.74 mm·h
- VAS Different surroundings AUC0-5/6 h (healthy volunteers; [3]): 25.56 ± 52.75 mm·h
- VAS Dizziness AUC0-5/6 h (healthy volunteers; [3]): 0.97 ± 1.49 mm·h
- VAS Drowsiness AUC0-5/6 h (healthy volunteers; [3]): 13.25 ± 20.39 mm·h
- VAS Feeling close to others AUC0-5/6 h (healthy volunteers; [3]): 116.56 ± 42.59 mm·h
- VAS Good effects AUC0-5/6 h (healthy volunteers; [3]): 129.66 ± 50.22 mm·h
- VAS High AUC0-5/6 h (healthy volunteers; [3]): 118.63 ± 44.24 mm·h
- VAS I want to be with other people AUC0-5/6 h (healthy volunteers; [3]): 62.94 ± 49.65 mm·h
- VAS I want to hug someone AUC0-5/6 h (healthy volunteers; [3]): 80.38 ± 74.45 mm·h
- VAS Intensity AUC0-5/6 h (healthy volunteers; [3]): 112.03 ± 34.05 mm·h
- VAS Liking AUC0-5/6 h (healthy volunteers; [3]): 134.09 ± 48.13 mm·h
- VAS Open AUC0-5/6 h (healthy volunteers; [3]): 112.56 ± 51.16 mm·h
- VAS Sexual arousal AUC0-5/6 h (healthy volunteers; [3]): 44.44 ± 49.02 mm·h
- VAS Sexual desire AUC0-5/6 h (healthy volunteers; [3]): 44.69 ± 48.58 mm·h
- VAS Stimulated AUC0-5/6 h (healthy volunteers; [3]): 104.81 ± 29.68 mm·h
- VAS Trust AUC0-5/6 h (healthy volunteers; [3]): 126.91 ± 60.79 mm·h
- VAS Unreal body feeling AUC0-5/6 h (healthy volunteers; [3]): 3.13 ± 6.75 mm·h
- VAS Unreal surroundings AUC0-5/6 h (healthy volunteers; [3]): 1.50 ± 4.24 mm·h
- Time of peak pharmacological effects (healthy volunteers; oral): 3 h
- Substitution for MDMA in drug discrimination ([1]; rodents): fully substituted for MDMA

SMILES: CNC(C)C(=O)c1ccc2c(c1)OCO2 (stereo not drawn) [Methylone, 3,4-methylenedioxy-N-methylcathinone]
- Substitution for MDMA in drug discrimination ([1]; rats): > 80%
- Persistence of heart rate increases (humans; naturalistic and controlled environments): 8 to 10 h
- Time of peak effects following self-administration (humans; naturalistic conditions): 2 h
